{
  "source": "patent US6747151B2",
  "about": "“Azo compounds for type I phototherapy” (Mallinckrodt, Inc., priority 2001, dated 2004)",
  "origin": "cited, not measured here",
  "key": {"tumors": {"system": "tumors", "conditions": "after administration"}, "melanoma cells": {"system": "melanoma cells", "conditions": "after administration"}},
  "data": [
    {"compound": "NCC(=O)CCC(=O)O", "note": "[delta-aminolevulinic acid]", "values": [
      {"measurement": "uptake of porphyrins in tumors compared to normal tissues", "setting": "tumors", "value": "two-fold"}
    ]},
    {"compound": "dihydroxyindole-2-carboxylic acid", "values": [
      {"measurement": "levels of melanin in melanoma cells compared to normal cells", "setting": "melanoma cells", "value": "substantially enhanced"}
    ]}
  ]
}
